This assay concerns the target T1, human DGAT1 (Homo sapiens, UniProt O75907).
T1 construct: made in house; host or cells: Sf9 insect cells (recombinant baculovirus); membrane fraction
T1 sequence (O75907 1-488): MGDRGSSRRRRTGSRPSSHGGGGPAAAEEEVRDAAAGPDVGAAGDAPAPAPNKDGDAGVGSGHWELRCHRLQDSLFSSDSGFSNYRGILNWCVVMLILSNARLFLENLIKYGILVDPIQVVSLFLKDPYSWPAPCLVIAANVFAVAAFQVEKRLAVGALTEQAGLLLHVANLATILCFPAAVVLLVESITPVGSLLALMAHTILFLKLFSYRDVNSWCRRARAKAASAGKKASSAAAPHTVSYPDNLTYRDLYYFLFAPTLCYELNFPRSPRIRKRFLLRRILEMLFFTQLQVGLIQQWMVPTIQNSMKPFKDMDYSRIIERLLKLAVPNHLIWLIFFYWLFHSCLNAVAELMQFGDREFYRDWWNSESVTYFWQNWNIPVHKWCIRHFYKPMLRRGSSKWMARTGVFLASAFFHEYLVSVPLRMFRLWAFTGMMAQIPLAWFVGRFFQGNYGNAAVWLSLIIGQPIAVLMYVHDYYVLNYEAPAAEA
Description: Human enzyme assay, further developed assay (14C oleoyl CoA, 96 well plate). The following applies: human DGAT1 expressed in insect cell (sf9) membranes. It is filed as biochemical. How it is done:
The in vitro assay to identify DGAT1 inhibitors uses human DGAT1 expressed in insect cell membranes as the enzyme source (Proc. Natl. Acad. Sci. 1998, 95, 13018-13023). Briefly, sf9 cells were infected with recombinant baculovirus containing human DGAT1 coding sequences and harvested after 48 h. Cells were lysed by sonication and membranes isolated by centrifuging at 28000 rpm for 1 h at 4° C. on a 41% sucrose gradient. The membrane fraction at the interphase was collected, washed, and stored in liquid nitrogen.
In a further developed assay, DGAT1 activity was assayed by a modification of the method described by Coleman (Methods in Enzymology 1992, 209, 98-102). Compound at 0.00003-10 μM (final cone) was incubated with 25 μg/ml (final cone) membrane protein, 5 mM MgCl2, and 100 μM 1,2 dioleoyl-sn-glycerol in a total assay volume of 200 μl in a 96 well plate. The reaction was started by adding ^14C oleoyl coenzyme A (30 μM final concentration) and incubated at room temperature for 30 minutes. The reaction was stopped by adding 300 μl 2-propanol:heptane 7:1. Radioactive triolein product was separated into the organic phase by adding 200 μl heptane and 200 μl 0.1 M carbonate buffer pH 9.5. DGAT1 activity was quantified by counting aliquots of the upper heptane layer by liquid scintillography.

For orientation: IC50 means the concentration needed to halve the response being measured.

In turn, `COc1nc(O[C@H]2CC[C@@H](C(=O)O)CC2)ccc1NC(=O)c1nnc(Nc2ccc(F)c(F)c2)o1` [Example 51, (1s,4s)-4-(5-(5-(3,4-Difluorophenylamino)-1,3,4-oxadiazole-2-carboxamido)-6-methoxypyridin-2-yloxy)cyclohexanecarboxylic acid] returned an IC50 of 29 nM. With `COc1nc(O[C@H]2CC[C@@H](C(=O)O)CC2)ccc1NC(=O)c1nnc(Nc2ccc(F)c(Cl)c2)o1` [Example 52, (1s,4s)-4-(5-(5-(3-Chloro-4-fluorophenylamino)-1,3,4-oxadiazole-2-carboxamido)-6-methoxypyridin-2-yloxy)cyclohexanecarboxylic acid], half-maximal inhibition (IC50) required 23 nM. `O=C(O)C[C@H]1CC[C@@H](Oc2ccc(NC(=O)c3nnc(Nc4ccc(F)c(Cl)c4)o3)cn2)CC1` [Example 53, 2-((1s,4s)-4-(5-(5-(3-Chloro-4-fluorophenylamino)-1,3,4-oxadiazole-2-carboxamido)pyridin-2-yloxy)cyclohexyl)acetic acid] yielded an IC50 of 3.1 nM. As to `O=C(O)C[C@H]1CC[C@@H](Oc2ccc(NC(=O)c3nnc(Nc4ccc(Cl)cc4Cl)o3)cn2)CC1` [Example 54, 2-((1s,4s)-4-(5-(5-(2,4-Dichlorophenylamino)-1,3,4-oxadiazole-2-carboxamido)pyridin-2-yloxy)cyclohexyl)acetic acid], the IC50 was 8.3 nM.

In turn, `O=C(Nc1ccc(O[C@H]2CC[C@@H](C(=O)O)CC2)nc1F)c1nnc(Nc2ccc(F)c(Cl)c2)o1` [Example 55, (1s,4s)-4-(5-(5-(3-Chloro-4-fluorophenylamino)-1,3,4-oxadiazole-2-carboxamido)-6-fluoropyridin-2-yloxy)cyclohexanecarboxylic acid] displayed an IC50 of 2.1 nM. `COc1cc(NC(=O)c2nnc(Nc3ccc(F)c(Cl)c3)o2)cnc1O[C@H]1CC[C@@H](C(=O)O)CC1` [Example 56, (1s,4s)-4-(5-(5-(3-Chloro-4-fluorophenylamino)-1,3,4-oxadiazole-2-carboxamido)-3-methoxypyridin-2-yloxy)cyclohexanecarboxylic acid] yielded an IC50 of 150 nM. `COc1cc(NC(=O)c2nnc(Nc3ccc(F)c(F)c3)o2)cnc1O[C@H]1CC[C@@H](C(=O)O)CC1` [Example 57, (1s,4s)-4-(5-(5-(3,4-Difluorophenylamino)-1,3,4-oxadiazole-2-carboxamido)-3-methoxypyridin-2-yloxy)cyclohexanecarboxylic acid] showed an IC50 of 410 nM. `O=C(Nc1cnc(O[C@H]2CC[C@@H](C(=O)O)CC2)cc1F)c1nnc(Nc2cc(F)c(F)cc2F)o1` [Example 58, (1s,4s)-4-(4-Fluoro-5-(5-(2,4,5-trifluorophenylamino)-1,3,4-oxadiazole-2-carboxamido)pyridin-2-yloxy)cyclohexanecarboxylic acid] showed an IC50 of 6.1 nM.

Regarding `O=C(Nc1cnc(O[C@H]2CC[C@@H](C(=O)O)CC2)cc1F)c1nnc(Nc2ccc(F)c(F)c2)o1` [Example 59, (1s,4s)-4-(5-(5-(3,4-Difluorophenylamino)-1,3,4-oxadiazole-2-carboxamido)-4-fluoropyridin-2-yloxy)cyclohexanecarboxylic acid], the IC50 was 8.6 nM. Consider `O=C(Nc1cnc(O[C@H]2CC[C@@H](C(=O)O)CC2)c(F)c1)c1nnc(Nc2ccc(F)c(F)c2)o1` [Example 60, (1s,4s)-4-(5-(5-(3,4-Difluorophenylamino)-1,3,4-oxadiazole-2-carboxamido)-3-fluoropyridin-2-yloxy)cyclohexanecarboxylic acid], for which the IC50 amounted to 14 nM. Turning to `O=C(Nc1cnc(O[C@H]2CC[C@@H](C(=O)O)CC2)c(F)c1)c1nnc(Nc2ccc(F)c(Cl)c2)o1` [Example 61, (1s,4s)-4-(5-(5-(3-Chloro-4-fluorophenylamino)-1,3,4-oxadiazole-2-carboxamido)-3-fluoropyridin-2-yloxy)cyclohexanecarboxylic acid], the IC50 worked out at 19 nM. `Cc1nc(O[C@H]2CC[C@@H](C(=O)O)CC2)ccc1NC(=O)c1nnc(Nc2ccc(F)c(F)c2)o1` [Example 62, (1s,4s)-4-(5-(5-(3,4-Difluorophenylamino)-1,3,4-oxadiazole-2-carboxamido)-6-methylpyridin-2-yloxy)cyclohexanecarboxylic acid] came in with an IC50 of 58 nM. For `CC(C)c1ccc(Nc2nnc(C(=O)Nc3ccc(O[C@H]4C[C@@H](C(=O)O)C4)nc3)o2)cc1` [Example 63] the value was 30 nM; for `CC(C)c1ccc(Nc2nnc(C(=O)Nc3ccc(O[C@H]4C[C@H](C(=O)O)C4)nc3)o2)cc1` [Example 64], 1.9 nM.

For `O=C(Nc1ccc(O[C@H]2C[C@@H](C(=O)O)C2)nc1)c1nnc(Nc2ccc(F)c(F)c2)o1` [Example 65, cis-3-(5-(5-(3,4-difluorophenylamino)-1,3,4-oxadiazole-2-carboxamido)pyridin-2-yloxy)cyclobutanecarboxylic acid], the midpoint of inhibition, the IC50, lay at 26 nM. In turn, `O=C(Nc1ccc(O[C@H]2C[C@H](C(=O)O)C2)nc1)c1nnc(Nc2ccc(F)c(F)c2)o1` [Example 66, trans-3-(5-(5-(3,4-difluorophenylamino)-1,3,4-oxadiazole-2-carboxamido)pyridin-2-yloxy)cyclobutanecarboxylic acid] registered an IC50 of 2.1 nM.

As to `CC1(C(=O)O)CCC(Oc2ccc(NC(=O)c3nnc(Nc4ccc(Cl)cc4Cl)o3)cn2)CC1` (centres unmarked) [Example 67, 4-(5-((5-((2,4-dichlorophenyl)amino)-1,3,4-oxadiazole-2-carbonyl)amino)pyridin-2-yl)oxy-1-methylcyclohexane-1-carboxylic acid], the IC50 came to 7.2 nM. Compound `C[C@]1(C(=O)O)CC[C@@H](Oc2ccc(NC(=O)c3nnc(Nc4ccc(F)c(F)c4)o3)cn2)CC1` [Example 68, (1s,4s)-4-(5-(5-(3,4-Difluorophenylamino)-1,3,4-oxadiazole-2-carboxamido)pyridin-2-yloxy)-1-methylcyclohexanecarboxylic acid] returned an IC50 of 8.3 nM. To `O=C(Nc1ccc(O[C@H]2CC[C@@H](C(=O)O)CC2)nc1F)c1nnc(Nc2cc(F)c(F)cc2F)o1` [Example 70, (1s,4s)-4-(6-Fluoro-5-(5-(2,4,5-trifluorophenylamino)-1,3,4-oxadiazole-2-carboxamido)pyridin-2-yloxy)cyclohexanecarboxylic acid] belongs 4.1 nM.

On to `COc1cc(Cl)ccc1Nc1nnc(C(=O)Nc2ccc(O[C@H]3CC[C@@H](C(=O)O)CC3)nc2)o1` [Example 71, (1s,4s)-4-(5-(5-(4-Chloro-2-methoxyphenylamino)-1,3,4-oxadiazole-2-carboxamido)pyridin-2-yloxy)cyclohexanecarboxylic acid], for which the IC50 turned out to be 34 nM.
